According to patent publication US9890192B2, “Targeted nitroxide agents” (University of Pittsburgh—of the Commonwealth System of …, priority 2008, dated 2018):
Entries after “also recorded” stand apart in the source; their conditions may differ. Blank lines part the entries; values can stand above or below the compound they belong to. Where a SMILES comes first, the peptide text is derived from it. [ ]: non-standard residue; d: D form. The star is where a group is joined. ξ: configuration not given here. NH(TEMPO-4-yl) = CC1(C)CC(N*)CC(C)(C)N1[O]; Orn = NCCC[C@H](N)C(=O)O; Cbz = O=C(OCc1ccccc1)*; Boc = CC(C)(C)OC(=O)*; ξOrn = NCCCC(N)C(=O)O; X1 = CC1CCN=C(N*)S1

Legend:
[1] = test system: mitochondrial membrane; assay: Quantitative mass spectrometry of AMT peptide conjugates permeating the mitochondrial membrane; format: cell-based; settings: relative quantification of conjugate at the target site
Procedure: Quantitative mass spectrometry studies were used to compare the effectiveness of several AMT peptide conjugates in permeating the mitochondrial membrane, specifically XJB-5-234, XJB-5-133, XJB-5-241, and XJB-5-127. The fmole/10 μM mitochondrial protein ratio provides a relative quantification of conjugate concentration at the target site.

[2] = test system: MECs; assay: Intracellular superoxide generation (DHE flow cytometry) in ActD-treated MECs; format: cell-based, mouse; settings: 10 μM pretreatment; ActD 100 ng/mL
Procedure: Determination of intracellular superoxide radicals. Oxidation-dependent fluorogenic dye, dihydroethidium (“DHE”, Molecular Probes) was used to evaluate intracellular production of superoxide radicals. DHE is cell permeable and, in the presence of superoxide, is oxidized to fluorescent ethidium which intercalates into DNA. The fluorescence of ethidium was measured using a FACscan (Becton-Dickinson, Rutherford, N.J.) flow cytometer, equipped with a 488-nm argon ion laser and supplied with the Cell Quest software. Mean fluorescence intensity from 10,000 cells were acquired using a 585-nm bandpass filter (FL-2 channel).

[3] = test system: MECs; assay: ActD-induced apoptosis in MECs (annexin V, caspase-3, DNA fragmentation); settings: for DNA fragmentation / caspase-3 activation / number of annexin V-positive cells (PS externalization): 10 μM, ActD 100 ng/mL
Procedure: The ability of 5a, 5b, and 4-AT to protect cells against apoptosis triggered by actinomycin D (“ActD”) was also tested. MECs were pretreated with 10 μM 4-AT, 5a, or 5b then incubated with ActD at a concentration of 100 ng/mL.
Externalization of PS was analyzed by flow cytometry using an annexin V kit. Cells were harvested by trypsinization at the end of incubation and then stained with annexin V-FITC and propidium iodide (“PS”). Ten thousand cell events were collected on a FACScan flow cytometer. Annexin V-positive and PI-negative cells were considered apoptotic.
Activation of capase-3, a cysteine protease only activated in the execution phase of apoptosis, was determined using an EnzChek capsase-3 assay kit.
These DNA fragments are eluted, stained with propidium iodide and analyzed using flow cytometry. A cell population with decreased DNA content was considered a fraction of apoptotic cells.

[4] = test system: mitochondria of 32D c 13 hemopoietic cells; assay: Mass spectrometry of compounds in mitochondria isolated from 32D cl 3 cells; format: cell-based, murine; settings: 100 μM; two hours at 37° C.
Procedure: An unconjugated and conjugated NOS antagonist, (AMT, 100 μM) and an unconjugated and conjugated nitroxide derivative (4-amino-TEMPO, 100 μM) were incubated for two hours at 37° C. with 32D c 13 hemopoietic cells.
Following incubation, the cells were lysed and the mitochondria isolated for a mass spectrometry analysis where compounds isolated from mitochondria were identified as Na+ adducts. […] Thus, the targeting peptides successfully direct a NOS antagonist and a nitroxide to the mitochondria.

[5] = test system: irradiated uroepithelial cells; assay: NO and peroxynitrite production in irradiated uroepithelial cells; format: cell-based; settings: 4-amino-TEMPO 100 μM, AMT 10 μM; capsaicin evoked; 24 hours after irradiation
Procedure: Further physiological studies were conducted to determine the effects of peptide-targeted AMT and 4-amino-TEMPO on NO and peroxynitrite production in irradiated uroepithelial cells. The cells were cultured in an 8-well slide chamber for 3 days and then microsensor measurements were taken 24 hours after irradiation.
In cells treated with high-dose conjugated 4-amin-TEMPO (100 μM), peroxynitrite production was decreased by approximately 4-fold.

[6] = test system: mouse embryonic cells (MEC); assay: EPR-based analysis of integration and reduction of nitroxide Gramicidin S-peptidyl conjugates in MECs; format: cell-based; settings: 10 μM, whole cells, cytosol fractions
Procedure: Electron paramagnetic resonance (“EPR”) spectroscopy was used to monitor the cellular delivery of compounds 5a and 5b shown in FIG. 3 in mouse embryonic cells (“MEC”).
The following conditions were used during the EPR-based analysis of the integration and reduction of nitroxide Gramicidin S-peptidyl conjugates in MECs. The MECs at a concentration of 10 million MECs per mL were incubated with 10 μM of 4-AT and compound 5a, respectively. Recovered nitroxide radicals in whole cells, mitochondria, and cytosol fractions were resuspended in phosphate buffer saline (“PBS”) in the presence and absence, respectively, of 2 μM K3Fe(CN)6.

[7] = test system: 32D cl 3 mouse hematopoietic progenitor cell line; assay: Irradiation survival curves of 32D cl 3 cells with JP4-039; format: cell-based; settings: 10 μM
Procedure: Irradiation survival curves were performed on cells from the 32D cl 3 mouse hematopoietic progenitor cell line, incubated in 10 μM JP4-039 for 1 hour before irradiation, or plated in methylcellulose containing 10 μM […] after irradiation. Cells were irradiated from 0 to 8 Gy, plated in 0.8% methylcellulose containing media, and incubated for 7 days at 37° C. Colonies of greater than 50 cells were counted and data analyzed by linear quadratic and single-hit, multi-target models.

[8] = test system: KM101 human marrow stromal cells; assay: Irradiation survival of KM101 cells with JP4-039; format: cell-based; settings: 10 μM
Procedure: KM101 cells were incubated in media alone or in JP4-039 (10 μM) for one hour before irradiation or 24 hours after irradiation. The cells were irradiated to doses ranging from 0 to 6 Gy and plated in 4 well plates. Seven days later the cells were stained with crystal violet and colonies of greater than 50 cells counted. Cells incubated in JP4-039 either before or after irradiation were more radioresistant as shown by an increased shoulder of n=2.3±0.2 or 2.2±0.2, respectively compared to n of 1.1±0.1 for the KM101 cells (p=0.0309 or 0.0386, respectively).

[9] = test system: mice exposed to total body irradiation; assay: Survival of mice after total body irradiation; format: in vivo, mouse
Procedure: In FIG. 17A, mice received intraperitoneal injection of 10 mg per kilogram of each of the chemicals indicated in FIG. 5, then 24 hours later received 9.75 Gy total body irradiation according to published methods. Mice were followed for survival according to IACUC regulations. […] (P=0.0008). In FIG. 17B, mice received intraperitoneal injection of JP4-039 either 10 minutes before (square symbols) or 4 hours after (triangle symbols) irradiation with 9.75 Gy.
Groups of 15 mice received intraperitoneal injection of 10 mg. per kilogram of each indicated GS-nitroxide compound or carrier (Cremphora plus alcohol at 1 to 1 ratio, then diluted 1 to 10 in distilled water). Mice received 10 mg per kilogram intra-peritoneal injection 24 hours prior to total body irradiation. Control mice received radiation alone. […] (P=0.0005)

[10] = test system: MEF cells prepared from Ercc1−/− mouse embryos; assay: Toxicity of JP4-039 in Ercc1−/− MEF cultures; format: cell-based; settings: 48 hours
Procedure: (§1) To assess the therapeutic potential of JP4-039, tests for safety and protective activity were performed. FIGS. 35 and 36 show the results of tests to evaluate whether varying concentrations of JP4-039 produce toxic effects after 48 hours in cultures of MEF cells prepared from Ercc1^−/− or wild-type mouse embryos, respectively.

[11] = test system: MEF cells prepared from wild-type mouse embryos; assay: Toxicity of JP4-039 in wild-type MEF cultures; format: cell-based; settings: up to 10 μM, 48 hours
Procedure: as §1

[12] = test system: p16 in primary MEFs from Ercc1−/− mouse embryos; assay: p16 immunofluorescence in Ercc1−/− MEFs under 20% oxygen; format: cell-based; settings: 1 uM, 48 hrs
Procedure: To test the protective activity of JP4-039, cultures of primary MEFs were prepared from Ercc1^−/− mouse embryos and grown under 20% oxygen (ambient air), which creates oxidative stress in these cells that are hypersensitive to reactive oxygen species. The cells were then either treated with a concentration of 1 uM XJB-5-131, JP4-039, JED-E71-37 or JED-E71-58, or left untreated (media), and then after 48 hrs the level of p16, a marker of irreversible cellular senescence, was measured by immunofluorescence staining.

[13] = test system: γ-H2AX in primary MEF cells from Ercc1−/− mice; assay: γ-H2AX immunostaining in Ercc1−/− MEFs under oxidative stress; format: cell-based, mouse; settings: 1 μM, 48 hours
Procedure: Next, the abilities of these two agents, as well as XJB-5-131 and JP4-039, each at a concentration of 1 μM, were tested for their ability to prevent oxidation-induced DNA double-strand breaks in cell cultures prepared, and oxidatively stressed, as in the preceding paragraph. Treated as well as untreated cells were, after 48 hours of treatment, immunostained for γ-H2AX, a marker of DNA double-strand breaks as well as cellular senescence.

fmole/10 μM mitochondrial protein [1]: 89.8 fmole/10 μM mitochondrial protein
SMILES: CC(C)C[C@@H](/C=C/[C@H](Cc1ccccc1)C(=O)N1CCC[C@H]1C(=O)N[C@H](C(=O)N[C@@H](CCCNC(=O)OCc1ccccc1)C(=O)NC1=NCCC(C)S1)C(C)C)NC(=O)OC(C)(C)C (stereo partly drawn) [XJB-5-133, Boc-leu-ψ[(E)-CH═CH]-^DPhe-Pro-Val-Orn(Cbz)-AMT]

fmole/10 μM mitochondrial protein [1]: 1.45 fmole/10 μM mitochondrial protein
SMILES: CC(C)C[C@@H](/C=C/[C@H](Cc1ccccc1)C(=O)NC1=NCCC(C)S1)NC(=O)OC(C)(C)C (stereo partly drawn) [XJB-5-234, Boc-Leu-[ψ(E)-CH═CH]-^DPhe-AMT]

fmole/10 μM mitochondrial protein [1]: 50.8 fmole/10 μM mitochondrial protein
SMILES: CC(C)C[C@H](NC(=O)OC(C)(C)C)C(=O)N[C@H](Cc1ccccc1)C(=O)N1CCC[C@H]1C(=O)N[C@H](C(=O)NC(CCCNC(=O)OCc1ccccc1)C(=O)NC1=NCCC(C)S1)C(C)C (stereo partly drawn) [XJB-5-127, Boc-Leu-^DPhe-Pro-Val-Orn(Cbz)-AMT] (Boc-L[dF]PV[ξOrn](Cbz)-X1)

SMILES: CC(C)C[C@H](NC(=O)OC(C)(C)C)C(=O)N[C@H](Cc1ccccc1)C(=O)N1CCC[C@H]1C(=O)N[C@H](C(=O)N[C@@H](CCCNC(=O)OCc1ccccc1)C(=O)NC1CC(C)(C)N([O])C(C)(C)C1)C(C)C [5b] (Boc-L[dF]PV[Orn](Cbz)-{NH(TEMPO-4-yl)})
intracellular superoxide generation [2]: completely inhibited | DNA fragmentation [3]: prevented DNA fragmentation | caspase-3 activation [3]: prevented caspase-3 activation | number of annexin V-positive cells (PS externalization) [3]: reduced the number of annexin V•positive cells | protection or cytotoxicity at higher concentration ([3]; concentrations in excess of 10 μM): either less protective or exhibited cytotoxicity

SMILES: CC1CCN=C(N)S1 (stereo not drawn) [AMT, 2-amino-6-methyl-thiazine]
permeation of the mitochondrial membrane (MS, Na+ adducts) [4]: do not enter the mitochondria membrane in substantial quantities | peroxynitrite formation [5]: comparable amount of peroxynitrite

SMILES: CC1(C)CC(N)CC(C)(C)N1[O] [4-amino-TEMPO, reference compound]
EPR signals of nitroxide radicals; integration into cells and mitochondria [6]: did not effectively permeate cells or the mitochondria | intracellular superoxide generation [2]: had no effect | permeation of the mitochondrial membrane (MS, Na+ adducts) [4]: only permeate the mitochondrial membrane with the assistance of the attached GS-derived targeting sequence | peroxynitrite formation [5]: comparable amount of peroxynitrite | protection against ActD-induced apoptosis ([3]; 10 μM / low concentrations): afforded no protection

fmole/10 μM mitochondrial protein [1]: 103.3 fmole/10 μM mitochondrial protein
SMILES: C/C(=C\[C@H](Cc1ccccc1)C(=O)N1CCC[C@H]1C(=O)N[C@H](C(=O)NC(CCCNC(=O)OCc1ccccc1)C(=O)NC1=NCCC(C)S1)C(C)C)[C@H](CC(C)C)NC(=O)OC(C)(C)C (stereo partly drawn) [XJB-5-241, Boc-Leu-ψ[(E)-C(CH3)═CH]-^DPhe-Pro-Val-Orn(Cbz)-AMT]

SMILES: CC(C)C[C@@H](/C=C/[C@H](Cc1ccccc1)C(=O)N1CCC[C@H]1C(=O)N[C@H](C(=O)N[C@@H](CCCNC(=O)OCc1ccccc1)C(=O)NC1CC(C)(C)N([O])C(C)(C)C1)C(C)C)NC(=O)OC(C)(C)C [5a]
intracellular superoxide generation [2]: completely inhibited | DNA fragmentation [3]: prevented DNA fragmentation | caspase-3 activation [3]: prevented caspase-3 activation | number of annexin V-positive cells (PS externalization) [3]: reduced the number of annexin V•positive cells

SMILES: CC(C)C[C@@H](/C=C/CC(=O)NC1CC(C)(C)N([O])C(C)(C)C1)NC(=O)OC(C)(C)C [JP4-039, TEMPO-4-yl-(S,E)-5-(tert-butoxycarbonylamino)-7-methyloct-3-enamide]
hematopoietic cell radiation mitigation [7]: effective hematopoietic cell radiation mitigator | mitigation of irradiation damage [8]: effective mitigator | change in the Do ([8]; before or after irradiation): no significant change | survival of mice ([9]; 9.5 Gy total body irradiation, 10 mg per kilogram intraperitoneal 24 hours prior): increases survival | survival of mice ([9]; 9.75 Gy total body irradiation, 10 mg per kilogram intraperitoneal): significant increase in survival; also recorded: increases survival | cellular proliferation relative to untreated control cells ([10]; Ercc1−/− or wild-type MEF): enhanced | toxicity ([10]; up to 10 μM): no signs of toxicity were observed | toxicity [11]: no signs of toxicity were observed | level of p16 [12]: much lower | γ-H2AX (oxidation-induced DNA double-strand breaks) [13]: also effective
